The structures appear in SMILES notation.

Here are results for one compound from patent EP0873137B1, “COMPOSITIONS INCLUDING CALCIUM INFLUX BLOCKERS FOR INHIBITING CELL GROWTH” (The Wellesley Hospital Foundation, priority 1996, dated 1997).

Assay [1] has as its system Bone marrow derived mast cells (BMMC). Nature of the assay: Cell death assay (Trypan blue exclusion) in BMMC. The class given is cell-based. The note with it: for cell death: 24 hours. The method, then:
Cytotoxicity assays were performed as described in Materials and Methods. In Figures 1A to 1C, BMMCs were incubated with either SLF (500ng/ml in all cases) (circles) or IL-3 (25% WEHI-3 conditioned medium in all cases) (squares) with the indicated amounts of ketotifen (Figure 1A), econazole (Figure 1B) or Ni^2+ (Figure 1C). In Figure 1D, BMMCs were incubated with IL-3, and the indicated amounts of SLF. Plotted circles also included 2.5mM Ni^2+ and plotted squares included no Ni^2+. In Figure 1E, BMMCs were coated with IgE anti-DNP monoclonal SPE-7, then incubated with IL-3 plus the indicated amounts of DNP-HSA (Ag), with 5µM econazole (circles) or without econazole (squares). In Figure 1F, BMMCs were incubated with IL-3 plus the indicated amounts of Substance P, with 5µM econazole (circles) or without econazole (squares). In all cases, the proportion of dead cells was determined after 24 hours in culture by counting cells that could or could not exclude Trypan blue. Error bars represent the standard error determined from triplicate measurements.
(§1) Cells. Bone marrow derived mast cells (BMMC) were generated as described previously (Berger et al., 1994). They were cultured in OPTI-MEM (Gibco, Burlington, ON) supplemented with 10% heat-inactivated FBS and 2% WEHI-3 supernatant as a source of IL-3. 32D-kit cells (gift from Dr. Mark Minden, Ontario Cancer Institute) are an IL-3-dependent myelomonocytic cell line expressing c-kit (Hu et al., 1995). 32D-kit cells were grown in RPMI (Gibco) supplemented with 10% heat-inactivated FBS, 2% WEHI-3 supematant, and 1 mg/ml G418 (Gibco). The p815 cell line is a murine mastocytoma cell line. P815 cells were grown in RPMI supplemented with 10% heat-inactivated FBS. Bcl-2 gp+e NIH 3T3 packaging cells were grown in Dulbecco's modified Eagle's medium (DMEM - Gibco) and supplemented with 10% FBS and 2 µg/ml puromycin (Sigma, St. Louis, Mo). All cell cultures also contained 55µM β-mercaptoethanol and antibiotics (both Sigma). SK-BR3, MDA-MB231 and MCF-7 cells were obtained from ATCC. SK-BR3 and MDA-MB231 cells were cultured in RPMI medium supplemented with 10% heat inactivated fetal bovine serum. MCF-7 cells were cultured in DMEM medium supplemented with 10% heat inactivated fetal bovine serum and 10 µg/ml human insulin (Sigma).
(§2) Cell death assays. 2.5 X 10^4 BMMCs, 32D-kit or P815 cells were placed in 96-well flat bottom plates in a volume of 0.1 ml RPMI containing 0.5% FBS. Cells were supplemented with either SLF, Substance P or IL3 plus Ca^2+ channel blocker. In the case of adding IgE, cells were incubated with 10 µg/ml SPE-7 for 45 minutes at 4°C followed by 3 washes with RPMI, 0.5% FBS before plating in 96 well plates and adding 100 ng/ml DNP-HSA. The proportion of dead cells was determined after 18 or 24 hours in culture by counting cells that could or could not exclude Trypan blue.

The subject of assay [2] is 32D-kit-Bcl-2 cells. Nature of the assay: Cell death assay (Trypan blue exclusion) in Bcl-2 over-expressing 32D-kit cells. The class given is cell-based. Conditions: SLF plus 2.5, 5 or 10µM econazole; 18 hours; Figure 7B. The method, then:
Figures 6A and 6B show the effect of ionomycin on apoptosis induced by SLF and Ca^2+ influx blacker. In Figure 6A, 32D-kit cells were incubated for 18 hours with 5µM econazole and the indicated amounts of ionomycin in the presence of either SLF (circles) or IL-3 (squares). In Figure 6B, 32D-kit-Bcl-2 cells were incubated for 18 hours with 5µM econazole and the indicated amounts of ionomycin in the presence of either SLF (circles) or IL-3 (squares). The proportion of dead cells was determined by Trypan Blue exclusion.
In additional cultures, IL-3 alone or no factor was added and cell viability was similarly tested. The effect on cell viability of adding 25 or 250 µM YVAD-CHO was also evaluated in separate cultures in which no additional factors were added.
Generation of Bcl-2 over-expressing 32D-kit cells. gp + e bcl-2 retroviral producer cells were a gift from Dr. Y. Ben-David (Toronto) and contain an LXSN-based retroviral vector expressing genes for both puromycin resistance and murine bcl-2. For infection, a confluent layer of gp + e packaging cells were co-cultured with 32D-kit cells for 24 hours. Non-adherent 32D-kit cells were then removed, cultured for 48 hours and then selected for bcl-2 over-expressing cells in the presence of 2µg/ml puromycin.
as §2

For assay [3], the system named is BMMC. Nature of the assay: Analysis of DNA content (propidium iodide, flow cytometry) in BMMC. The class given is cell-based. Conditions: 24 hours. How it is done:
Analysis of DNA content. 1.25 X 10^6 cells were incubated for 18 or 24 hours as described above. Cells were spun down and resuspended in Vindelov's reagent: 3.4mM Tris - pH 8, 75 µM Propidium Iodide (from Sigma), 0.1% NP-40, 700 u/l RNAse (Sigma) and 10 mM NaCl. Cells were then analysed by flow cytometry.
A general note: Flow cytometry measures light scatter and fluorescence of single cells or particles in a stream.

Assay [4] has as its system SK-BR3 cells. Nature of the assay: Cell death (Trypan blue exclusion) in SK-BR3 breast cancer cells. The class given is cell-based, human. The note with it: with or without 10ng/ml EGF; 18 hours; Figure 9A. How it is done: as §1
Assay [5] concerns MDA-MB-231 cells. The assay can be described thus: Cell death in autocrine stimulated MDA-MB-231 breast cancer cells. The class given is cell-based, human. Conditions: 20µM econazole; Figure 9B. How it is done:
Bar 1: control; Bar 2: 20µM econazole; Bar 3: 20µM econazole and 10µM YVAD-CHO (ICE inhibitor); Bar 4: 20µM econazole and 100 µM YVAD-CHO; Bar 5: 20µM econazole and 0.1 nM ionomycin (calcium ionophore); Bar 6: 20µM econazole and 10 nM ionomycin; Bar 7: 20µM econazole and 1 µM ionomycin; Bar 8: 20µM econazole and 10 µM oleic acid (PLC activation inhibitor); and Bar 9: 20µM econazole and 100 µM oleic acid.
as §1
The MDA-MB-231 cell line is a highly anaplastic carcinoma of the breast. it too is tumorigenic in nude mice but expresses only low levels of erbB2. However it is FGF^R positive and is stimulated in an autocrine fashion by bFGF (el Yazidi et al., 1995). Experiments were carried out to determine the susceptibility of MDA-MB-231 cells to a Ca^2+ influx blocker and the influence of oleic acid, ionomycin, and YVAD-CHO on induction of cell death by the blocker. The results are summarized together in Figure 9B.

In assay [6] the test system is MCF-7 cells. The assay can be described thus: Cell death (Trypan blue exclusion) in MCF-7 cells. The class given is cell-based, human. The note with it: with versus without 10ng/ml EGF; 18 hours; Figure 10. How it is done:
2.5 X 10^4 MCF-7 cells were incubated in the wells of a 96-well plate in 0.1ml DMEM plus 0.5% FBS with (circles) or without (squares) 10ng/ml EGF and with the concentrations of econazole indicated for 18 hours. The proportion of dead cells was evaluated by Trypan Blue exclusion after 18 hours in culture.
as §1, with “MCF-7 cells were cultured in DMEM medium supplemented with 10% heat inactivated fetal bovine serum and 10 µg/ml human insulin (Sigma).” left out

The test system of assay [7] is NS1/Ag4 myeloma cells. The note with it: at 1µg/ml; cited from earlier work.

Consider `Clc1ccc(COC(Cn2ccnc2)c2ccc(Cl)cc2Cl)cc1` (centres unmarked) [econazole], for which the cell death result in assay [1] (co-incubated with SLF (500ng/ml), Figures 1A-C) is recorded as “converted to a death signal”; in assay [1] (stimulated with IgE plus antigen (DNP-HSA), with IL-3, 5µM econazole in Figure 1E), “cell death is induced”; in assay [1] (stimulated with Substance P, IL-3, 5µM econazole) it was “cell death is also induced”; in assay [4], “equivalent levels of death”. Moreover, the cell viability entry in assay [1] (econazole alone, without antigenic stimulation) is “no effect on cell viability”. For the same compound, the “protection by Bcl-2 overexpression from induction of apoptosis” value in assay [2] is given as “fails to protect”. The “Sub G1 Content (%) 8µM econazole” value in assay [3] (8µM econazole plus IL-3 (25% WEHI conditioned media)) stood at 20.4%; in assay [3] (8µM econazole plus SLF (500ng/m.)), 66.8%. Moreover, the apoptosis result in assay [5] is on record as “undergo apoptosis”. For the same compound, the “sensitivity to cell death” value in assay [6] was “more sensitive”. The “cell viability and cell numbers” value in assay [7] was “reduce cell viability and cell numbers”.
